# In patent US12226401B2, “Molecular genetic approach to treatment and diagnosis of alcohol and drug dependence” (priority 2010, dated 2025):
# How the values were obtained:
# Format in all cases: in vivo, human
# [1] = test system: alcohol dependent individuals; experiment: Same ondansetron alcohol dependence trial, epistatic genotype analysis: percentage of days abstinent (PDA)
# Source text: Using the same data as was used in Example 11, further epistatic analysis among SNPs from serotonin (SERT), 5HT-3A, and 5HT-3B reveal that significant epistatic effect exists among the three genes in affecting response to ondesetron treatment as measured by drinks/drinking day (DDD), drinks/day (DD), percentage heavy drinking days (PHDD), and percentage of days abstinent (PDA).
# Using the same data as was used in Example 11, further epistatic analysis among SNPs from serotonin (SERT), 5HT-3A, and 5HT-3B reveal that significant epistatic effect exists among the three genes in affecting response to ondesetron treatment as measured by DDD, DD, and PDA.
# [2] = test system: alcoholics; experiment: Predicted treatment outcome with ondansetron by 5'-HTTLPR / rs1042173 genotype matrix; parameters: key: XA being the very best; all the cells marked with an X will be efficacious; Y may respond somewhat; Z will not respond or worsen
# [3] = test system: alcohol dependent patients; experiment: Phase II study of 283 randomized alcohol dependent subjects: ondansetron response by 5'-HTTLPR and 3'-UTR genotype (PHDD, DDD, PDA, patients with no heavy drinking); conditions: LL/TT, LL/TG, LL/GG, LS/TG, and SS/TG genotypes
# Source text: The TT and TG genotype groups can be summarized as T carriers.
compound,measurement,setting,value
"Cc1nccn1CC1CCc2c(c3ccccc3n2C)C1=O (stereo not drawn) [ondansetron, 9-methyl-3-[(2-methyl-1H-imidazol-1-yl)methyl]-1,2,3,9-tetrahydrocarbazol-4-one]","Least Squares Mean Difference, PDA, OND vs. Placebo",[1]; Among Comb (LL + TT or AC or AG),13.36
same,"Least Squares Mean Difference, PDA, Comb vs. Others","[1]; Among OND, Comb = LL + TT or AC or AG",13.11
same,"Least Squares Mean, Percentage Days of Abstinent (PDA)",[1]; Comb (LL + TT or AC or AG),48.68
same,"Least Squares Mean, Percentage Days of Abstinent (PDA)",[1]; Others (not LL + TT or AC or AG),35.58
same,"Least Squares Mean, Percentage Days of Abstinent (PDA)","[1]; all OND patients, model Comb (LL + TT or AC or AG) vs Others",42.13
same,Predicted treatment outcome with ondansetron,[2]; genotype LL/GG,X
same,Predicted treatment outcome with ondansetron,[2]; genotype LL/TG,X
same,Predicted treatment outcome with ondansetron,[2]; genotype LL/TT,XA
same,Predicted treatment outcome with ondansetron,[2]; genotype LS/GG,Y
same,Predicted treatment outcome with ondansetron,[2]; genotype LS/TG,Y
same,Predicted treatment outcome with ondansetron,[2]; genotype LS/TT,X
same,Predicted treatment outcome with ondansetron,[2]; genotype SS/GG,Z
same,Predicted treatment outcome with ondansetron,[2]; genotype SS/TG,Z
same,Predicted treatment outcome with ondansetron,[2]; genotype SS/TT,X
same,Response to ondansetron treatment by genotype,[3],respond to ondansetron treatment
